pIC50: −log10 of the molar value. Values after ≈ are worked out from the molar mass of the structure shown.
Experiments:
[1] = molecular target: T1, Acyl-CoA (8-3)-desaturase (Homo sapiens, UniProt O60427); test: In vivo inhibition of human Delta 5 desaturase in C57BL/6J mouse at 3 mg/kg, po relative to control; type: organism-based
Target sequence in this assay (O60427 whole entry, looked up): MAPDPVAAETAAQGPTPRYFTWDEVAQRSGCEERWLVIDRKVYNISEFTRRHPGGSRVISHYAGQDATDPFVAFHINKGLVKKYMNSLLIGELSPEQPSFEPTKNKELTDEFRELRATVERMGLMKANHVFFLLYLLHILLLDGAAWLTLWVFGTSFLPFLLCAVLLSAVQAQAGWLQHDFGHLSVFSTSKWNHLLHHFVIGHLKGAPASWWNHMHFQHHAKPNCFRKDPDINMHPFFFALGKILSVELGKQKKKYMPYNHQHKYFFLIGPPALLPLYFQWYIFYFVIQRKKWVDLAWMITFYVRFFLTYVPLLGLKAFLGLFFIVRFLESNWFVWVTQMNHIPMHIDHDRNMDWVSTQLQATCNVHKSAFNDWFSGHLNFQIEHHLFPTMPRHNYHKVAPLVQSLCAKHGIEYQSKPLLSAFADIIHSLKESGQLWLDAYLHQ

[2] = molecular target: T1, Acyl-CoA (8-3)-desaturase; test: Inhibition of human Delta 5 desaturase (unknown origin) expressed in human HepG2 cells; type: cell-based
Target sequence in this assay (O60427 whole entry): as the sequence (O60427 whole entry, looked up) above

[3] = molecular target: T1, Acyl-CoA (8-3)-desaturase; test: In vivo inhibition of human Delta 5 desaturase in atherosclerosis mouse model at 3 mg/kg, po relative to control; type: organism-based
Target sequence in this assay (O60427 whole entry, looked up): as above

[4] = Inhibition of human LTB4
[5] = Inhibition of human LTC4
[6] = system: Mycobacterium tuberculosis; test: Antimycobacterial activity against Mycobacterium tuberculosis assessed as bacterial growth inhibition; type: functional
[7] = system: Mycobacterium tuberculosis; test: Antimycobacterial activity against Mycobacterium tuberculosis H37Rv strain assessed as bacterial growth inhibition by Microplate amar blue assay; type: functional
[8] = system: Staphylococcus aureus; test: Antibacterial activity against methicillin sensitive Staphylococcus aureus assessed as bacterial growth inhibition incubated for 18 hrs; type: functional
[9] = system: Staphylococcus aureus; test: Antibacterial activity against methicillin resistant Staphylococcus aureus assessed as bacterial growth inhibition incubated for 18 hrs; type: functional
[10] = system: HEK293; test: Anticancer activity against HEK293 cells assessed as cell growth inhibition incubated for 48 hrs by MTT assay; type: functional, cell-based; settings: Homo sapiens, HEK293, 48 h
[11] = system: L02; test: Anticancer activity against human L02 cells assessed as cell growth inhibition incubated for 48 hrs by MTT assay; type: functional, cell-based; settings: L02, 48 h
[12] = system: Clostridioides difficile; test: In vivo Antibacterial activity against Clostridium difficile infected in hamster assessed as survival at 50 mg/kg, sc relative to control; type: functional
[13] = molecular target: Aldo-keto reductase family 1 member B1 (Homo sapiens, UniProt P15121); test: Inhibition of […] (unknown origin)
[14] = Toxicity in mouse; type: organism-based; settings: in vivo
[15] = species on record: Rattus norvegicus; test: Anticonvulsant activity in rat; type: functional
[16] = species on record: Mus musculus; test: Anticonvulsant activity in mouse; type: functional
[17] = system: HepG2; test: Anticancer activity against human HepG2 assessed as IL-6 induced luciferase activity; type: functional, cell-based
[18] = system: HepG2; test: Anticancer activity against human HepG2 assessed as IL-6 induced luciferase activity at 50 uM relative to control; type: functional
[19] = system: TF-1; test: Anticancer activity against human TF-1 cells assessed as cell growth inhibition; type: functional, cell-based
[20] = molecular target: Kallikrein-6 (Homo sapiens, UniProt Q92876); test: Inhibition of KLK6 (unknown origin)
[21] = system: HeLa; test: Anticancer activity against human HeLa cells assessed as cell growth inhibition incubated for 72 hrs by MTT assay; type: functional, cell-based
[22] = system: MCF7; test: Anticancer activity against human MCF7 cells assessed as cell growth inhibition incubated for 72 hrs by MTT assay; type: functional, cell-based; settings: MCF7, 72 h
[23] = system: Mycobacterium tuberculosis; test: Antimycobacterial activity against Mycobacterium tuberculosis H37Rv strain assessed as bacterial growth inhibition incubated for 18 to 24 hrs; type: functional; settings: time 18-24 hrs
[24] = AUClast in Sprague-Dawley rat at 15 mg/kg, iv by HPLCLC-MS/MS analysis; type: ADME, organism-based; design: dose 15 mg/kg, route iv; settings: in vivo
[25] = Metabolic stability in human microsomes assessed as half life; type: ADME, Microsome
[26] = Metabolic stability in mouse microsomes assessed as intrinsic clearance; type: ADME, Microsome
[27] = Metabolic stability in mouse microsomes assessed as half life; type: ADME, Microsome
[28] = Metabolic stability in human microsomes assessed as intrinsic clearance; type: ADME, Microsome
[29] = system: Staphylococcus aureus; test: Antibacterial activity against Staphylococcus aureus assessed as bacterial growth inhibition incubated for 24 hrs; type: functional
[30] = system: Enterococcus faecalis; test: Antibacterial activity against Linezolid resistant Enterococcus faecalis assessed as bacterial growth inhibition incubated for 24 hrs; type: functional
[31] = system: Enterococcus faecium; test: Antibacterial activity against Linezolid resistant Enterococcus faecium assessed as bacterial growth inhibition incubated for 24 hrs; type: functional
[32] = system: Mycobacterium kansasii; test: Antibacterial activity against Mycobacterium kansasii assessed as bacterial growth inhibition; type: functional
[33] = system: Mycobacteroides chelonae; test: Antibacterial activity against Mycobacteroides chelonae assessed as bacterial growth inhibition; type: functional
[34] = system: Mycolicibacterium fortuitum; test: Antibacterial activity against Mycobacterium fortuitum assessed as bacterial growth inhibition; type: functional
[35] = system: Clostridioides difficile; test: Antibacterial activity against Clostridium difficile NAP1/027/BI-type strain 2009155 assessed as bacterial growth inhibition incubated for 48 hrs by agar dilution method; type: functional
[36] = system: Clostridioides difficile; test: Antibacterial activity against Clostridium difficile ATCC 43255 strain assessed as bacterial growth inhibition incubated for 48 hrs by agar dilution method; type: functional
[37] = system: Clostridioides difficile; test: Antibacterial activity against Clostridium difficile ATCC 43596 strain assessed as bacterial growth inhibition incubated for 48 hrs by agar dilution method; type: functional
[38] = system: Clostridioides difficile; test: Antibacterial activity against Clostridium difficile 2004118 strain assessed as bacterial growth inhibition incubated for 48 hrs by agar dilution method; type: functional
[39] = system: Clostridioides difficile; test: Antibacterial activity against Clostridium difficile NCTC 11223 strain assessed as bacterial growth inhibition incubated for 48 hrs by agar dilution method; type: functional
[40] = molecular target: Carbonic anhydrase 2 (Homo sapiens, UniProt P00918); test: Inhibition of human CA2
[41] = molecular target: Acetylcholinesterase (Homo sapiens, UniProt P22303); test: Inhibition of human AchE
Chain of Acetylcholinesterase (P22303 whole entry): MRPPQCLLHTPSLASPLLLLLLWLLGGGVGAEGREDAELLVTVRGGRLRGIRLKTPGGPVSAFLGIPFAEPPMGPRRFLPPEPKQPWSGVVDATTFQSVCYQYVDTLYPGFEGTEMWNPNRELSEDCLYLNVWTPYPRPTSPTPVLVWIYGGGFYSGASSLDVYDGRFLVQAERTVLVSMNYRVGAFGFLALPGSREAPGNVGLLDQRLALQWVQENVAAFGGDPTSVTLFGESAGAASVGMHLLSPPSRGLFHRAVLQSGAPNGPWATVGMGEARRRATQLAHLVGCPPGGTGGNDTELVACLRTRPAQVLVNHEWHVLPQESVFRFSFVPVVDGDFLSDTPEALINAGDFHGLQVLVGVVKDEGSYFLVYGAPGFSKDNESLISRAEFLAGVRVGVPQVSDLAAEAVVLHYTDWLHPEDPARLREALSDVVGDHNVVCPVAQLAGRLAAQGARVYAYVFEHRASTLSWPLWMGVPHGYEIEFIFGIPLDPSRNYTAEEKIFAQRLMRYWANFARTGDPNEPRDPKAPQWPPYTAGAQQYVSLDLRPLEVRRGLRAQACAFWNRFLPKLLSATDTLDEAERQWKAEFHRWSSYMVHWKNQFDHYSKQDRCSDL

[42] = molecular target: Carbonic anhydrase 1 (Homo sapiens, UniProt P00915); test: Inhibition of human CA1
Chain of Carbonic anhydrase 1 (P00915 whole entry): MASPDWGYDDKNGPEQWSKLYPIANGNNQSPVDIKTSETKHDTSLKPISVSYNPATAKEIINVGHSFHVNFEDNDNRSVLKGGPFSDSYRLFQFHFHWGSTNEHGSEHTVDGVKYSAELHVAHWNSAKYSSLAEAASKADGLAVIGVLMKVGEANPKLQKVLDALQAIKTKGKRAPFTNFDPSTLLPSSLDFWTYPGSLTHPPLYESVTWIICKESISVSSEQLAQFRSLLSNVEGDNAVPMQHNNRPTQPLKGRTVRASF

[43] = molecular target: Alpha glucosidase (Homo sapiens, UniProt O43451+P10253+P14410+Q2M2H8); test: Inhibition of human alpha glucosidase; type: protein assay
[44] = system: Metaphire posthuma; test: Anti-helmintic activity at Metaphire posthuma assessed as time of survival; type: functional
[45] = system: Metaphire posthuma; test: Anti-helmintic activity at Metaphire posthuma assessed as paralysis induction time; type: functional
[46] = system: L02; test: Cytotoxicity against human L02 cells assessed as cell growth inhibition incubated for 48 hrs by MTT assay; type: functional, cell-based; settings: L02, 48 h
[47] = system: MGC-803; test: Anticancer activity against human MGC-803 cells assessed as cell growth inhibition incubated for 48 hrs by MTT assay; type: functional, cell-based; settings: MGC-803, 48 h
[48] = system: NCI-H460; test: Anticancer activity against human NCI-H460 cells assessed as cell growth inhibition incubated for 48 hrs by MTT assay; type: functional, cell-based; settings: NCI-H460, 48 h
[49] = system: CNE-2; test: Anticancer activity against human CNE-2 cells assessed as cell growth inhibition incubated for 48 hrs by MTT assay; type: functional, cell-based; settings: CNE-2, 48 h
[50] = system: SK-OV-3; test: Anticancer activity against human SK-OV-3 cells assessed as cell growth inhibition incubated for 48 hrs by MTT assay; type: functional, cell-based; settings: SK-OV-3, 48 h
[51] = system: Mycobacterium tuberculosis; test: Antimycobacterial activity against Mycobacterium tuberculosis H37Rv strain assessed as bacterial growth inhibition incubated for 48 hrs by Microplate amar blue assay; type: functional

## C[C@@H]1[C@@H](c2ccc(F)cc2)OC(=O)N1c1cc(C#N)cc(C#N)c1
[1]
  inhibition: 74%
[2]
  pIC50: 8.82
[3]
  inhibition: 66%

## CCCCCCC(=O)N(O)C[C@H]1CN(c2ccc(N3CCOCC3)c(F)c2)C(=O)O1
[4]
  pIC50: 6.15
[5]
  pIC50: 6.05

## CC(C)C[C@@H](NC(=O)OC1c2ccccc2-c2ccccc21)C(=O)N[C@@H](Cc1ccccc1)[C@H]1CN(c2ccc(N3CCOCC3)c(F)c2)C(=O)O1
[6]
  MIC90: 2.6 µM (≈ 1.84 µg/mL)

## CC(=O)NC[C@H]1CN(c2ccc(N3C[C@H]4C[C@@H](O)C[C@H]4C3)c(F)c2)C(=O)O1
[7]
  MIC90: 0.6 µM

## CC(=O)NC[C@H]1CN(c2ccc(-n3cc(-c4ccccn4)cn3)c(F)c2)C(=O)O1
[8]
  MIC: 1 µg/mL (≈ 2.53 µM)
[9]
  MIC: 0.5 µg/mL (≈ 1.26 µM)
[10]
  pIC50: < 4.60
[11]
  pIC50: 4.30

## Cc1ncc([N+](=O)[O-])n1CCO [METRONIDAZOLE]
[12]
  survival at 50 mg/kg: 0%

## COc1cc(COc2ccccc2C2(C)CN(CC(=O)O)C(=O)O2)cc(OC)c1OC (centres undefined)
[13]
  pIC50: 5.50

## O=C(NCC(=O)N1CCN(c2ccc(N3C[C@H](Cn4ccnn4)OC3=O)cc2F)CC1)c1cccs1
[14]
  TD50: > 500 mg/kg
[15]
  ED50: 34.5 mg/kg
[16]
  ED50: 90 mg/kg

## C=C(CCCCC)[C@@H](O)[C@H](C)C(=O)N1C(=O)OC[C@@H]1C(C)C
[17]
  pIC50: 5.23
[18]
  inhibition at 50 µM: 90%
[19]
  pIC50: 5.12

## COc1ccccc1-c1ccc([C@H](C)Nc2cncc(N3C(=O)OC[C@@H]3C(C)C)n2)cc1
[20]
  pIC50: 8.60

## CCN(CC)C(=O)/C=C1/OC(=O)N(Cc2ccccc2)C1(C)C
[21]
  pIC50: 4.75
[22]
  pIC50: 4.51

## O=C(NCC(=O)N1CCN(c2ccc(N3C[C@H](Cn4ccnn4)OC3=O)cc2F)CC1)c1ccc([N+](=O)[O-])o1
[23]
  MIC90: 0.9 µM (≈ 0.488 µg/mL)

## CC(=O)NC[C@H]1CN(c2ccc(-c3ccc(-c4csc(N)n4)cc3)c(F)c2)C(=O)O1
[6]
  MIC90: 0.9 µM (≈ 0.384 µg/mL)

## CCOc1nc(-c2ccc(N3C[C@H](CNC(C)=O)OC3=O)cc2F)cs1
[6]
  MIC90: 2.6 µM (≈ 0.986 µg/mL)

## O=C(COP(=O)(O)O)N1CCN(c2ccc(-c3ccc(N4C[C@H](Cn5ccnn5)OC4=O)cc3F)cn2)C=N1
[24]
  AUClast: 5.08 mg/h/L

## CC[C@H](NC(=O)[C@H]1CN(c2ccc(C(=N)N)cc2)C(=O)O1)c1cccc2ccccc12
[25]
  half-life: > 3 h
[26]
  CLH: 2.4 mL/min/g
[27]
  half-life: > 3 h
[28]
  CLH: 3.1 mL/min/g

## O=C(CO)N1CCN(c2ccc(-c3ccc(N4C[C@H](Cn5ccnn5)OC4=O)cc3F)cn2)C=N1
[24]
  AUClast: 85 mg/h/L
[29]
  MIC: < 2 µg/mL
[30]
  MIC: < 2 µg/mL
[31]
  MIC: < 2 µg/mL

## CC(=O)NC[C@H]1CN(c2ccc(N3CCN(c4ccc5nccn5n4)CC3)c(F)c2)C(=O)O1
[32]
  MIC90: 1 µM (≈ 0.453 µg/mL)
[6]
  MIC90: 1.1 µM (≈ 0.499 µg/mL)
[33]
  MIC90: 8 µM (≈ 3.63 µg/mL)
[34]
  MIC90: 8 µM (≈ 3.63 µg/mL)

## CN[C@H](CC(C)C)C(=O)N[C@H]1C(=O)N[C@@H](CC(N)=O)C(=O)N[C@H]2C(=O)N[C@H]3C(=O)N[C@H](C(=O)N[C@H](C(=O)O)c4cc(O)cc(O)c4-c4cc3ccc4O)[C@H](O)c3ccc(c(Cl)c3)Oc3cc2cc(c3O[C@@H]2O[C@H](CO)[C@@H](O)[C@H](O)[C@H]2O[C@H]2C[C@](C)(N)[C@H](O)[C@H](C)O2)Oc2ccc(cc2Cl)[C@H]1O [VANCOMYCIN]
[12]
  survival at 50 mg/kg: 50%

## CC(=O)NC[C@H]1CN(c2ccc(-c3cnc(-n4cncn4)nc3)c(F)c2)C(=O)O1
[35]
  MIC90: 0.25 µg/mL (≈ 0.629 µM)
[36]
  MIC90: 0.25 µg/mL (≈ 0.629 µM)
[12]
  survival at 50 mg/kg: 100%
[37]
  MIC90: 0.25 µg/mL (≈ 0.629 µM)
[38]
  MIC90: 0.25 µg/mL (≈ 0.629 µM)
[39]
  MIC90: 0.25 µg/mL (≈ 0.629 µM)

## CC1(C)O[C@@H]2[C@@H](O)[C@H]3NC(=O)O[C@H]3C[C@@H]2O1
[40]
  pIC50: 4.61
[41]
  pIC50: 4.23
[42]
  pIC50: 4.34
[43]
  IC50: 30.5 µM

## COc1ccc(C2CC3(CN(CC(=O)O)C(=O)O3)c3cc(Br)ccc3O2)cc1 (centres undefined)
[13]
  pIC50: 6.19

## O=C(OC[C@H]1CN(c2ccc(N3CCOCC3)nc2)C(=O)O1)C1CCCCC1
[44]
  Survival: 8.1 min
[45]
  Time: 3.6 min

## O=C1CC2CN(c3ccc(N4C[C@H](Cn5ccnn5)OC4=O)cc3F)CC2C1 (some centres undefined)
[7]
  MIC90: 1.2 µM

## CC(C)c1ccc2c(c1)CCC1[C@](C)(C(=O)OCC3CN(c4ccc(F)cc4)C(=O)O3)CCC[C@]21C (some centres undefined)
[46]
  pIC50: < 4.00
[47]
  pIC50: 5.42
[48]
  pIC50: 5.42
[49]
  pIC50: 5.42
[50]
  pIC50: 5.42

## O=C1O[C@@H](Cn2ccnn2)CN1c1ccc(N2CCOCC2)c(F)c1
[51]
  MIC90: 1.3 µM (≈ 0.452 µg/mL)
